Laboratory results from patent publication US8273762B2, “Hexahydro-pyrrolo-isoquinoline compounds” (Janssen Pharmaceutica NV, priority 2005, dated 2012).
Like-named read-outs stand apart in the source and are kept apart here.

Key:
[1] = target: T1, cloned human H3 receptor, stably expressed in SK-N-MC cells (Homo sapiens, UniProt Q9Y5N1); assay: H3 receptor binding (N-[3H]-α-methylhistamine displacement); conditions: SK-N-MC membranes, 0.8 nM N-[3H]-α-methylhistamine
T1 construct: expressed in transfected cells

[2] = target: T2, Rat SERT (Rattus norvegicus, UniProt P31652); assay: Rat brain SERT binding ([3H]-Citalopram displacement)
T2 construct: A rat brain without cerebellum (Zivic Laboratories, Inc.—Pittsburgh, Pa.) was homogenized; tissue Zivic Laboratories, Inc; host or cells: rat brain without cerebellum, membranes

[3] = target: T3, human H3 receptor (SK-N-MC cells) (Homo sapiens, UniProt Q9Y5N1); assay: Cyclic AMP accumulation (β-galactosidase reporter, Schild analysis vs histamine); assay type: cell-based
T3 construct: expressed in transfected cells; host or cells: SK-N-MC sublines with CRE-beta-galactosidase reporter

[4] = target: T4, human SERT (HEK293 membranes) (Homo sapiens, UniProt P31645); assay: Human SERT binding (3H-citalopram displacement)
T4 construct: purchased Perkin-Elmer; host or cells: HEK293 membranes

[5] = rat brain membranes, 0.6 nM [3H]-Citalopram, read-out: Rat SERT Ki

T2 sequence (P31652 whole entry): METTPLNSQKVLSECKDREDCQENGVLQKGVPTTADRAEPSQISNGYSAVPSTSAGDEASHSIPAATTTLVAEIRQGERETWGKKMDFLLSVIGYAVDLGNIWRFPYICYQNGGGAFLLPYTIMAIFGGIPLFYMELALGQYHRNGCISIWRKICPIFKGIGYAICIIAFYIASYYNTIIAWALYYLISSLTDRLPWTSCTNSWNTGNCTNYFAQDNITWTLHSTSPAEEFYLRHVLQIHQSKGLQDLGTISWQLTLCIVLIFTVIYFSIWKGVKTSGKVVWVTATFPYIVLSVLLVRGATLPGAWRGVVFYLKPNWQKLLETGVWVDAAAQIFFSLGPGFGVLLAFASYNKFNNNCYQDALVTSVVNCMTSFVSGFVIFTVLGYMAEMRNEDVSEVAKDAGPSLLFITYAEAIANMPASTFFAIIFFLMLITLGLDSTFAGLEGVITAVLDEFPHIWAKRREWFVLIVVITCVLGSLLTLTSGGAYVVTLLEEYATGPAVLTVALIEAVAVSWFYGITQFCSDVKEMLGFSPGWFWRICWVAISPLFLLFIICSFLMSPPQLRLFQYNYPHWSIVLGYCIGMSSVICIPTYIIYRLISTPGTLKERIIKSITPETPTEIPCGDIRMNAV
T4 sequence (P31645 whole entry): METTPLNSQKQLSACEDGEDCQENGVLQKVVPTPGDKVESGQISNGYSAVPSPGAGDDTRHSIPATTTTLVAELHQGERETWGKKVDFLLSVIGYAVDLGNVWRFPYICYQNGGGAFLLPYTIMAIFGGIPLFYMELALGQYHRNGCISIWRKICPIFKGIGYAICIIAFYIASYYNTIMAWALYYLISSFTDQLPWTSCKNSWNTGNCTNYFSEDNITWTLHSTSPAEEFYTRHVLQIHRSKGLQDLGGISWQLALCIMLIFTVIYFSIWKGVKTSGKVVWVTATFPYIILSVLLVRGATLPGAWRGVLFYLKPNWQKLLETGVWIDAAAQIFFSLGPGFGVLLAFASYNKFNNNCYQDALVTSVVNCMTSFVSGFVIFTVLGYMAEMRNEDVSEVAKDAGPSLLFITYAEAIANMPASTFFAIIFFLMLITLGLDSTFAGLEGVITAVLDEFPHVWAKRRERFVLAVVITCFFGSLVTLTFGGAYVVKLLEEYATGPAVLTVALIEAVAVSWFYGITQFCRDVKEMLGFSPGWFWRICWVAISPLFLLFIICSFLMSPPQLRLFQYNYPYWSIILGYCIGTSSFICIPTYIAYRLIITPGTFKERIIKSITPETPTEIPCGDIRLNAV
T3 sequence (Q9Y5N1 whole entry): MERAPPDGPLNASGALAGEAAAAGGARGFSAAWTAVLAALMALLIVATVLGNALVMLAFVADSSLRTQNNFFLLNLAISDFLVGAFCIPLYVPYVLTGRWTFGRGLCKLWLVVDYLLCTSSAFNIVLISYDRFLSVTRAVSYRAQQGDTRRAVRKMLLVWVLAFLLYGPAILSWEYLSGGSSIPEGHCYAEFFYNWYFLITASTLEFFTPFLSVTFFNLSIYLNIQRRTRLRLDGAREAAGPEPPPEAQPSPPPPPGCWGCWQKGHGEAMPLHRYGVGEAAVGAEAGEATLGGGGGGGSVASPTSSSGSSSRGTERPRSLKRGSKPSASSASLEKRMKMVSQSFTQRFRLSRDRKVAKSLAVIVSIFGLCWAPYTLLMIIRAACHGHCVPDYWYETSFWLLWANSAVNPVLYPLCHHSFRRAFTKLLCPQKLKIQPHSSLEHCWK
T1 sequence (Q9Y5N1 whole entry): as above

Row | SMILES | Ki [1] | Ki [2, 5] | Kb ([3]; read-out: H3 pA2 (converted)) | Ki [4] | Ki [2] | Kb [3]
1 | Clc1cccc([C@H]2CN3CCC[C@H]3c3cc(OCCCN4CCCCC4)ccc32)c1 (relative stereo) [Example 11B, Trans-6-(3-Chloro-phenyl)-9-(3-piperidin-1-yl-propoxy)-1,2,3,5,6,10b-hexahydro-pyrrolo[2,1-a]isoquinoline] | 1 nM | 91 nM | 0.501 nM | – | – | –
2 | C[Si](C)(C)C#Cc1ccc([C@H]2CN3CCC[C@H]3c3cc(OCCCN4CCCCC4)ccc32)cc1 (relative stereo) [Example 36] | 4 nM | – | – | – | 15 nM | 10 nM
3 | Clc1cccc([C@@H]2CN3CCC[C@H]3c3cccc(OCCCN4CCCCC4)c32)c1 (relative stereo) [Example 11C] | 136 nM | 1000 nM | – | – | – | –
4 | CSc1ccc(C2CN3CCCC3c3cccc(OCCCN4CCCCC4)c32)cc1 (stereo not shown) [Example 39C, 6-(4-Methylsulfanyl-phenyl)-7-(3-piperidin-1-yl-propoxy)-1,2,3,5,6,10b-hexahydro-pyrrolo[2,1-a]isoquinoline] | 36 nM | 69 nM | – | – | – | –
5 | O=[N+]([O-])c1ccc([C@@H]2CN3CCC[C@H]3c3cc(OCCCN4CCCCC4)ccc32)cc1 (relative stereo) [Example 2B, Trans-6-(4-Nitro-phenyl)-9-(3-piperidin-1-yl-propoxy)-1,2,3,5,6,10b-hexahydro-pyrrolo[2,1-a]isoquinoline] | 31 nM | 544 nM | 1.58 nM | – | – | –
6 | Oc1ccc([C@@H]2CN3CCC[C@H]3c3cccc(OCCCN4CCCCC4)c32)cc1 (relative stereo) [Example 9B] | 1000 nM | 6000 nM | – | – | – | –
7 | O=[N+]([O-])c1cccc([C@@H]2CN3CCC[C@H]3c3cccc(OCCCN4CCCCC4)c32)c1 (relative stereo) [Example 4D, Trans-6-(3-Nitro-phenyl)-7-(3-piperidin-1-yl-propoxy)-1,2,3,5,6,10b-hexahydro-pyrrolo[2,1-a]isoquinoline] | 1 nM | 154 nM | – | – | – | –
8 | COc1cccc([C@@H]2CN3CCC[C@H]3c3cccc(OCCCN4CCCCC4)c32)c1 (relative stereo) [Example 10C, Trans-6-(3-Methoxy-phenyl)-7-(3-piperidin-1-yl-propoxy)-1,2,3,5,6,10b-hexahydro-pyrrolo[2,1-a]isoquinoline] | 82 nM | 2000 nM | – | – | – | –
9 | FC(F)(F)c1ccc([C@H]2CN3CCC[C@H]3c3cc(OCCCN4CCCCC4)ccc32)cc1 (relative stereo) [Example 7A, Cis-9-(3-Piperidin-1-yl-propoxy)-6-(4-trifluoromethyl-phenyl)-1,2,3,5,6,10b-hexahydro-pyrrolo[2,1-a]isoquinoline] | 5 nM | – | 6.31 nM | 12 nM | – | –
10 | Oc1cccc([C@H]2CN3CCC[C@H]3c3cc(OCCCN4CCCCC4)ccc32)c1 (relative stereo) [Example 15] | 0.7 nM | – | 0.126 nM | 3 nM | – | –
11 | FC(F)(F)c1ccc([C@@H]2CN3CCC[C@@H]3c3cc(OCCCN4CCCCC4)ccc32)cc1 (relative stereo) [Example 7B, Trans-9-(3-Piperidin-1-yl-propoxy)-6-(4-trifluoromethyl-phenyl)-1,2,3,5,6,10b-hexahydro-pyrrolo[2,1-a]isoquinoline] | – | 25 nM | – | – | – | –
12 | C[Si](C)(C)C#Cc1cccc([C@H]2CN3CCC[C@H]3c3cc(OCCCN4CCCCC4)ccc32)c1 (relative stereo) [Example 33] | 7 nM | – | – | – | 33 nM | 7.94 nM
13 | O=[N+]([O-])c1ccc([C@H]2CN3CCC[C@H]3c3cc(OCCCN4CCCCC4)ccc32)cc1 (relative stereo) [Example 2A, Cis-6-(4-Nitro-phenyl)-9-(3-piperidin-1-yl-propoxy)-1,2,3,5,6,10b-hexahydro-pyrrolo[2,1-a]isoquinoline] | 1 nM | – | 0.398 nM | 6 nM | – | –
14 | CSc1ccc([C@H]2CN3CCC[C@H]3c3cc(OCCCN4CCOCC4)ccc32)cc1 [Example 90, (1S,6R)-6-(4-Methylsulfanyl-phenyl)-9-(3-morpholin-4-yl-propoxy)-1,2,3,5,6,10b-hexahydro-pyrrolo[2,1-a]isoquinoline] | 10 nM | 24 nM | – | – | – | –
15 | N#Cc1ccc([C@H]2CN3CCC[C@H]3c3cc(OCCCN4CCCCC4)ccc32)cc1 (relative stereo) [Example 41B, Trans-4-[9-(3-Piperidin-1-yl-propoxy)-1,2,3,5,6,10b-hexahydro-pyrrolo[2,1-a]isoquinolin-6-yl]-benzonitrile] | 1 nM | 6 nM | 0.794 nM | – | – | –
16 | c1ccc([C@@H]2CN3CCC[C@H]3c3cc(OCCCN4CCCCC4)ccc32)cc1 (relative stereo) [Example 1B, Trans-6-Phenyl-9-(3-piperidin-1-yl-propoxy)-1,2,3,5,6,10b-hexahydro-pyrrolo[2,1a]isoquinoline] | 0.2 nM | 138 nM | 0.251 nM | – | – | –

Now from value to compound, other results behind:

Row | Ki [1] | Ki [2, 5] | Kb ([3]; read-out: H3 pA2 (converted)) | Ki [4] | SMILES | Ki [2] | Kb [3]
17 | 31 nM | 630 nM | – | – | FC(F)(F)c1ccc([C@@H]2CN3CCC[C@H]3c3cccc(OCCCN4CCCCC4)c32)cc1 (relative stereo) [Example 7C] | – | –
18 | – | 27 nM | – | – | FC(F)(F)c1ccc([C@@H]2CN3CCC[C@H]3c3cc(OCCCN4CCCCC4)ccc32)cc1 (relative stereo) [Example 7A, Cis-9-(3-Piperidin-1-yl-propoxy)-6-(4-trifluoromethyl-phenyl)-1,2,3,5,6,10b-hexahydro-pyrrolo[2,1-a]isoquinoline] | – | –
19 | 16 nM | 3 nM | – | – | CSc1ccc([C@@H]2CN3CCC[C@@H]3c3cc(OCCCN4CCOCC4)ccc32)cc1 [Example 89, (1R,6S)-6-(4-Methylsulfanyl-phenyl)-9-(3-morpholin-4-yl-propoxy)-1,2,3,5,6,10b-hexahydro-pyrrolo[2,1-a]isoquinoline] | – | –
20 | 68 nM | 4000 nM | – | – | c1ccc([C@@H]2CN3CCC[C@H]3c3cccc(OCCCN4CCCCC4)c32)cc1 (relative stereo) [Example 1C, Trans-6-Phenyl-7-(3-piperidin-1-yl-propoxy)-1,2,3,5,6,10b-hexahydro-pyrrolo[2,1a]isoquinoline] | – | –
21 | 3 nM | – | 1.58 nM | 2000 nM | CSc1ccc([C@@H]2CN3CCC[C@H]3c3ccc(C#CCCN4CCCCC4)cc32)cc1 (relative stereo) [Example 97A, Cis-6-(4-methylsulfanyl-phenyl)-8-(4-piperidin-1-yl-but-1-ynyl)-1,2,3,5,6,10b-hexahydro-pyrrolo[2,1-a]isoquinoline] | – | –
22 | 0.5 nM | – | 0.0794 nM | 8 nM | Nc1ccc([C@H]2CN3CCC[C@H]3c3cc(OCCCN4CCCCC4)ccc32)cc1 (relative stereo) [Example 3] | – | –
23 | 0.8 nM | – | 0.631 nM | 220 nM | COc1cc([C@H]2CN3CCC[C@H]3c3cc(OCCCN4CCCCC4)ccc32)cc(OC)c1OC (relative stereo) [Example 22] | – | –
24 | 4 nM | – | 3.98 nM | 7 nM | Ic1ccc([C@@H]2CN3CCC[C@H]3c3cc(OCCCN4CCCCC4)ccc32)cc1 (relative stereo) [Example 35A, Cis-6-(4-Iodo-phenyl)-9-(3-piperidin-1-yl-propoxy)-1,2,3,5,6,10b-hexahydro-pyrrolo[2,1-a]isoquinoline] | – | –
25 | – | 60 nM | 3.16 nM | – | COc1ccc([C@H]2CN3CCC[C@H]3c3cc(OCCCN4CCOCC4)ccc32)cc1 [Example 91, (1S,6R)-6-(4-Methoxy-phenyl)-9-(3-morpholin-4-yl-propoxy)-1,2,3,5,6,10b-hexahydro-pyrrolo[2,1-a]isoquinoline] | – | –
